# Patent US20230092762A1, “THERAPEUTIC DELIVERY OF LOCKED NUCLEIC ACID CONJUGATED ANTISENSE MIR-1” (THE TRUSTEES OF INDIANA UNIVERSITY, priority 2020, published 2023)
# Assays:
# BAX = test: Western blot analysis of BAX in human keratinocytes; type: cell-based; conditions: 20 μM, 24 h
# Method: Western Blot Analysis. Immunoblotting was performed using HaCaT cell and wound tissue lysates. After protein extraction, the protein concentration was determined by BCA protein assay as described earlier. The samples (10-20 μg of protein/lane) were separated on a 4-12% SDS polyacrylamide gel electrophoresis and probed with rabbit polyclonal anti-notch1 […] antibody (1:1000 dilution, Abcam, Cambridge, Mass.), rabbit polyclonal anti-BAX antibody (1:1000 dilution, Abcam, Cambridge, Mass.), HRP conjugated anti-GAPDH (1:10,000 dilution). Bands were visualized by horseradish peroxidase-conjugated anti-rabbit-IgG raised in donkey and horseradish peroxidase-conjugated anti-mouse-IgG raised in sheep (Amersham Biosciences, Piscataway, N.J.) at 1:2,000 dilution and the enhanced chemiluminescence assay (Amersham Biosciences, Piscataway, N.J.).
# human keratinocytes [1] = test: Measurement of mitochondrial membrane potential (JC-1 flow cytometry; TMRM/PMPI); type: cell-based
# Method: Measurement of Mitochondrial Membrane Potential. Mitochondrial membrane potential changes were assessed by two different techniques, a) using the lipophilic cationic dye JC-1 (MitoProbe JC-1 Assay Kit for Flow Cytometry, Life technologies) per manufacturer's instruction by flow cytometer. Mitochondrial membrane potential was also evaluated b) using TMRM/PMPI after 48 hours of control/[…] mimic transfection. The images were captured by confocal microscope and the quantification of fluorescent intensity was measured using FV1000 software (Olympus, Tokyo, Japan).
# human keratinocytes [2] = test: Respirometry assay (OCR, XF-96 Seahorse); type: cell-based; conditions: 20 μM, 24 h, vs vehicle control
# Method: Respirometry Assay. The Oxygen Consumption Rate (OCR) measurements were performed using a Seahorse Bioscience XF-96 instrument. A day prior to the experiment, the sensor cartridge was hydrated overnight using the calibration buffer supplied by the manufacturer. The transfected cells were seeded in the 96 well microplate supplied by the company. On the day of the experiment, the cells were washed with the calibrant buffer twice and incubated with glucose free DMEM for 2 h at 37° C. in a CO2 free incubator. The injection ports of the sensors were filled with 20 μL of treatment or vehicle in buffer. The sensor was then placed into the XF-96 instrument and calibrated. After calibration, the calibration fluid plate was replaced with the cell plate. The measurement cycle consisted of a 2 min mix, 1 min wait, and a 2 min measurement. Four basal rate measurements were followed with injections and each injection is followed by four measurement cycles. The consumption rates were calculated from the continuous average slope of the O2 decreases using a compartmentalization model. For any one treatment, the rates from 10 wells were used. Rates for the wells were normalized for protein content. All average rates were normalized to the vehicle control basal and t-tests between control and treatment were used to assess statistical significance.
# breast cancer stem cells = conditions: phase I trial; cited from earlier work
smiles,measurement,setting,value
O=C(O)CC[C@H]1CC[C@@](c2cc(F)ccc2F)(S(=O)(=O)c2ccc(Cl)cc2)CC1 [MK-0752],BAX dimerization,BAX,caused BAX dimerization
same,JC-1 green fluorescence (compromised ΔΨ),"human keratinocytes [1]; JC-1, 20 μM, 24 h",significant increase in JC-1 green fluorescence
same,TMRM fluorescence,"human keratinocytes [1]; TMRM and PMPI staining, 20 μM, 24 h",significant decrease in TMRM fluorescence
same,mitochondrial membrane potential (ΔΨ),human keratinocytes [1]; studies using TMRM and PMPI,lowered ΔΨ
same,ATP production,human keratinocytes [2],significant decrease
same,basal respiration,human keratinocytes [2],significant decrease
same,rate of oxygen consumption,human keratinocytes [2],decreased rate of oxygen consumption
same,breast cancer stem cells,breast cancer stem cells,reduction of breast cancer stem cells
